# Measurements: paper PMC6863825, “Modulating multi-functional ERK complexes by covalent targeting of a recruitment site in vivo” (Nature Communications, 2019)
# Target: T1, ERK2 (Rattus norvegicus, UniProt P63086)
# T1 construct: gene Mapk1; full-length ERK2
# Assay: fluorescence anisotropy displacement of FITC D-site peptide; also protein NMR, intact MS, kinact/Ki
# Format: binding
# T1 sequence (P63086 2-358): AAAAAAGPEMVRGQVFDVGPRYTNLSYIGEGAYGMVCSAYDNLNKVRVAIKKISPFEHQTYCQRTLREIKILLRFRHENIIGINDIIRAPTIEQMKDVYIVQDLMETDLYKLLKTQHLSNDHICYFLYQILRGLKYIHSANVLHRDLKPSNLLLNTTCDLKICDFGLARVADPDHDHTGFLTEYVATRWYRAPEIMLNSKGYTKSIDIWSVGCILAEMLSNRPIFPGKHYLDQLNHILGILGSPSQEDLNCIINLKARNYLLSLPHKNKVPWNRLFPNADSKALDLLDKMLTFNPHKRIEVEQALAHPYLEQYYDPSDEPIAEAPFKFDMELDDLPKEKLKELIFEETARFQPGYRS
structure (smiles),measurement,value
"O=[N+]([O-])c1cnc(Sc2nnc(O)n2-c2ccc3c(c2)OCCO3)s1 [compound 1, BI-78D3]",Ki,800 ± 200 nM
